Where two headings read alike, the source gives them in different places.
B1: fetuin: sialoprotein, highly purified bovine fetuin (protein, UniProt P12763 19-359, looked up)
Alpha-2-HS-glycoprotein: IPLDPVAGYKEPACDDPDTEQAALAAVDYINKHLPRGYKHTLNQIDSVKVWPRRPTGEVYDIEIDTLETTCHVLDPTPLANCSVRQQTQHAVEGDCDIHVLKQDGQFSVLFTKCDSSPDSAEDVRKLCPDCPLLAPLNDSRVVHAVEVALATFNAESNGSYLQLVEISRAQFVPLPVSVSVEFAVAATDCIAKEVVDPTKCNLLAEKQYGFCKGSVIQKALGGEDVRVTCTLFQTQPVIPQPQPDGAEAEAPSAVPDAAGPTPSAAGPPVASVVVGPSVVAVPLPLHRAHYDLRHTFSGVASVESSSGEAFHVGKTPIVGQPSIPGGPVRLCPGRIRYFKI

Legend:
[1] = system: AS-40-80 fraction (partially purified LFA); assay: Inhibition of hemagglutination by partially purified LFA (AS-40-80 fraction); type: cell-based, Limax flavus; conditions: for Inhibition (%) AS-40-80 Fraction: 20 μg protein of AS-40-80 per assay
Method: (§1) Hemagglutination Assay: Aliquots of lectin were adjusted to 0.5 ml by addition of tris-saline buffer which contained 0.4 mg/ml gelatin. To this was added 0.5 ml of a solution containing human erythrocytes that had been washed several times with 0.9% NaCl and whose absorbance at 620 nm was ~2. After standing at room temperature for 30 min. the cells were gently pelleted by centrifugation in a Dynac centrifuge. The cells were resuspended by shaking and allowed to stand for 5 min. in order to permit aggregating cells to settle. The absorbance at 620 nm of the upper one-half ml of the erythrocyte suspension was measured and the data were plotted as A620 versus μg or μl of lectin. One unit of activity is defined as the amount of LFA which gave a 50% agglutination. Percent agglutination was calculated as follows: [formula]
(§2) A 0.5 ml aliquot of erythrocytes was added to the lectin plus inhibitor solution and the percent agglutination determined as described above. The percent inhibition of agglutination represents the difference between the percent agglutination with lectin alone and that obtained with lectin plus inhibitor.

[2] = system: purified LFA (sialic acid specific slug lectin); assay: Inhibition of hemagglutination by purified LFA; type: cell-based, Limax flavus; conditions: for Inhibition (%) Purified LFA: 0.34 μg purified LFA per assay; for IC50: read-out: Concentration giving 50% inhibition of hemagglutination, affinity purified LFA; for Ability to inhibit hemagglutination by purified slug lectin (in words): some 17 carbohydrates tested, concentrations as high as 10-25 mM
Method: as §1, §2

slug lectin = assay: Double diffusion of slug lectin in agar gel against sialoproteins; type: binding, Limax flavus

| Molecule | Inhibition (%) AS-40-80 Fraction ([1]; carbohydrate 25.0 mM) [%] | Inhibition (%) Purified LFA ([2]; carbohydrate 25.0 mM) [%] | Inhibition of hemagglutination by the 40-80% ammonium sulfate fraction (in words) [1] | other results |
| --- | --- | --- | --- | --- |
| OC[C@H]1O[C@@](CO)(O[C@H]2O[C@H](CO)[C@@H](O)[C@H](O)[C@H]2O)[C@@H](O)[C@@H]1O [Sucrose] | 0 | 0 | – | – |
| C[C@@H]1O[C@@H](O)[C@@H](O)[C@H](O)[C@@H]1O [α-L(-) Fucose] | 0 | 0 | – | – |
| OC[C@H]1OC(O)[C@@H](O)[C@@H](O)[C@@H]1O (single isomer, unassigned) [D (+) Mannose] | 0 | 0 | – | – |
| CC(=O)N[C@H]1C(O)O[C@H](CO)[C@H](O)[C@@H]1O (stereo partly drawn) [N--Acetyl-D-Galactosamine] | – | – | inhibition of hemagglutination | Inhibition (%) AS-40-80 Fraction ([1]; carbohydrate 10.0 mM): 75%; Inhibition (%) Purified LFA ([2]; carbohydrate 10.0 mM): 0% |
| O=C(CO)N[C@H]1[C@H]([C@H](O)[C@H](O)CO)OC(O)(C(=O)O)C[C@@H]1O (stereo partly drawn) [N--Glycolyneuraminic Acid, N-glycolylneuraminic acid] | – | – | inhibition of hemagglutination | Inhibition (%) AS-40-80 Fraction ([1]; carbohydrate 1.0 mM): 88%; Inhibition (%) AS-40-80 Fraction ([1]; carbohydrate .25 mM): 3%; Inhibition (%) AS-40-80 Fraction ([1]; carbohydrate .50 mM): 20%; Inhibition (%) AS-40-80 Fraction ([1]; carbohydrate .75 mM): 56%; Inhibition (%) Purified LFA ([2]; carbohydrate 1.0 mM): 85%; Inhibition (%) Purified LFA ([2]; carbohydrate .25 mM): 0%; Inhibition (%) Purified LFA ([2]; carbohydrate .50 mM): 2%; Inhibition (%) Purified LFA ([2]; carbohydrate .75 mM): 14%; IC50 [2]: 900 µM; IC50 ([2]; listed as GlyNeu): 810 µM; Ability to inhibit hemagglutination by purified slug lectin (in words) [2]: effective |
| OC[C@H]1O[C@@H](O[C@H]2[C@H](O)[C@@H](O)C(O)O[C@@H]2CO)[C@H](O)[C@@H](O)[C@H]1O (stereo partly drawn) [Lactose] | 0 | 0 | – | – |
| OC[C@H]1OC(O)[C@H](O)[C@@H](O)[C@H]1O (single isomer, unassigned) [D (+) Galactose] | 0 | 0 | – | – |
| CO[C@H]1O[C@H](CO)[C@@H](O)[C@H](O)[C@@H]1O [α-Methyl-D-Mannose] | 0 | 0 | – | – |
| CC(=O)N[C@H]1C(O)O[C@H](CO)[C@@H](O)[C@@H]1O (stereo partly drawn) [N--Acetyl-D-Glucosamine] | – | – | inhibition of hemagglutination | Inhibition (%) AS-40-80 Fraction ([1]; carbohydrate 10.0 mM): 53%; Inhibition (%) Purified LFA ([2]; carbohydrate 10.0 mM): 0% |
| O=C(O)[C@H]1OC(O)[C@H](O)[C@@H](O)[C@@H]1O (single isomer, unassigned) [D (-) Glucuronic Acid] | 0 | 0 | – | – |
| CC(=O)N[C@H]1[C@H]([C@H](O)[C@H](O)CO)OC(O)(C(=O)O)C[C@@H]1O (stereo partly drawn) [N--Acetylneuraminic Acid, N-acetylneuraminic acid] | – | – | inhibition of hemagglutination | Inhibition (%) AS-40-80 Fraction ([1]; carbohydrate .05 mM): 6%; Inhibition (%) AS-40-80 Fraction ([1]; carbohydrate .10 mM): 17%; Inhibition (%) AS-40-80 Fraction ([1]; carbohydrate .15 mM): 27%; Inhibition (%) AS-40-80 Fraction ([1]; carbohydrate .20 mM): 94%; Inhibition (%) Purified LFA ([2]; carbohydrate .05 mM): 1%; Inhibition (%) Purified LFA ([2]; carbohydrate .10 mM): 28%; Inhibition (%) Purified LFA ([2]; carbohydrate .15 mM): 54%; Inhibition (%) Purified LFA ([2]; carbohydrate .20 mM): 100%; IC50 [2]: 130 µM; Ability to inhibit hemagglutination by purified slug lectin (in words) [2]: effective |
| N[C@H]1C(O)O[C@H](CO)[C@H](O)[C@@H]1O (stereo partly drawn) [Galactosamine] | 45 | 0 | inhibition of hemagglutination | – |
| O[C@@H]1[C@@H](O)[C@@H](O)CO[C@H]1O [α (+) Arabinose] | 0 | 0 | – | – |
| OC[C@H]1OC(O)[C@H](O)[C@@H](O)[C@@H]1O (single isomer, unassigned) [D (-) Glucose] | 0 | 0 | – | – |
| CO[C@H]1O[C@H](CO)[C@@H](O)[C@H](O)[C@H]1O [α-Methyl-D-Glucoside] | 0 | 0 | – | – |
| OC1OC[C@@H](O)[C@H](O)[C@H]1O (single isomer, unassigned) [D (+) Xylose] | 0 | 0 | – | – |
| N[C@H]1C(O)O[C@H](CO)[C@@H](O)[C@@H]1O (stereo partly drawn) [Glucosamine] | 19 | 0 | inhibition of hemagglutination | – |
| B1 | – | – | – | Precipitin lines in double diffusion against slug lectin after asialylation (slug lectin; asialylated sialoprotein): lost; Precipitin lines in double diffusion against slug lectin (slug lectin; native sialoprotein): yielded precipitin lines; Inhibitory activity on slug lectin hemagglutination after asialylation ([2]; after incubation at 80° for one hour in 0.1N H2SO4): complete loss of inhibitory activity |
